Experimental data reported in PubChem BioAssay (NCI).
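Dose response: 5 concentrations. Exposure: 48 h. Format: 96-well plates. Endpoint: linear interpolation; highest concentration if not reached. GI50 = concentration required for 50% inhibition of growth. Definition used: TGI = concentration required for complete inhibition of growth.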

Assays:
Experiment in all cases: DTP human tumour cell line panel, 48 h
PC-3 prostate = system: PC-3 prostate
ACHN renal = system: ACHN renal
MOLT-4 leukemia = system: MOLT-4 leukemia
DU-145 prostate = system: DU-145 prostate
KM12 colon = system: KM12 colon
HL-60(TB) leukemia = system: HL-60(TB) leukemia
RXF 393 renal = system: RXF 393 renal
SW-620 colon = system: SW-620 colon
SF-539 CNS = system: SF-539 CNS
SF-268 CNS = system: SF-268 CNS
HS 578T breast = system: HS 578T breast
NCI-H226 lung = system: NCI-H226 lung
MDA-MB-435 = system: MDA-MB-435
HOP-92 NSCLC = system: HOP-92 NSCLC
T-47D breast = system: T-47D breast
NCI-H23 lung = system: NCI-H23 lung
OVCAR-5 ovarian = system: OVCAR-5 ovarian
BT-549 breast = system: BT-549 breast
CCRF-CEM leukemia = system: CCRF-CEM leukemia
SF-295 CNS = system: SF-295 CNS
HCC-2998 colon = system: HCC-2998 colon
EKVX NSCLC = system: EKVX NSCLC
A549 NSCLC = system: A549 NSCLC
OVCAR-8 ovarian = system: OVCAR-8 ovarian
UACC-62 melanoma = system: UACC-62 melanoma
U251 CNS = system: U251 CNS
786-0 renal = system: 786-0 renal
LOX IMVI melanoma = system: LOX IMVI melanoma
RPMI-8226 leukemia = system: RPMI-8226 leukemia
A498 renal = system: A498 renal
SK-MEL-28 melanoma = system: SK-MEL-28 melanoma
COLO 205 colon = system: COLO 205 colon
SK-MEL-5 melanoma = system: SK-MEL-5 melanoma
HT29 colon = system: HT29 colon
SK-MEL-2 melanoma = system: SK-MEL-2 melanoma
MALME-3M melanoma = system: MALME-3M melanoma
SK-OV-3 ovarian = system: SK-OV-3 ovarian
HOP-62 NSCLC = system: HOP-62 NSCLC
MDA-MB-468 breast = system: MDA-MB-468 breast
MCF7 breast = system: MCF7 breast
UO-31 renal = system: UO-31 renal
HCT-116 colon = system: HCT-116 colon
HCT-15 colon = system: HCT-15 colon
SNB-75 CNS = system: SNB-75 CNS
SR leukemia = system: SR leukemia
CAKI-1 renal = system: CAKI-1 renal
IGROV1 ovarian = system: IGROV1 ovarian
SNB-19 CNS = system: SNB-19 CNS
TK-10 renal = system: TK-10 renal
K-562 leukemia = system: K-562 leukemia
SN12C renal = system: SN12C renal
NCI-H522 lung = system: NCI-H522 lung
UACC-257 melanoma = system: UACC-257 melanoma
MDA-MB-231 breast = system: MDA-MB-231 breast
NCI/ADR-RES ovarian = system: NCI/ADR-RES ovarian
OVCAR-3 ovarian = system: OVCAR-3 ovarian
OVCAR-4 ovarian = system: OVCAR-4 ovarian
M14 melanoma = system: M14 melanoma
NCI-H460 lung = system: NCI-H460 lung

N#Cc1ccc(C(=O)CSc2nc3c(c(Nc4ccc(S(N)(=O)=O)cc4)n2)CCC3)cc1
GI50 (PC-3 prostate): > 22.5 µM | TGI (PC-3 prostate): > 22.5 µM | GI50 (ACHN renal): > 22.5 µM | TGI (ACHN renal): > 22.5 µM | GI50 (MOLT-4 leukemia): > 22.5 µM | TGI (MOLT-4 leukemia): > 22.5 µM | GI50 (DU-145 prostate): > 22.5 µM | TGI (DU-145 prostate): > 22.5 µM | GI50 (KM12 colon): > 22.5 µM | TGI (KM12 colon): > 22.5 µM | GI50 (HL-60(TB) leukemia): > 22.5 µM | TGI (HL-60(TB) leukemia): > 22.5 µM | GI50 (RXF 393 renal): > 22.5 µM | TGI (RXF 393 renal): > 22.5 µM | GI50 (SW-620 colon): > 22.5 µM | TGI (SW-620 colon): > 22.5 µM | GI50 (SF-539 CNS): > 22.5 µM | TGI (SF-539 CNS): > 22.5 µM | GI50 (SF-268 CNS): > 22.5 µM | TGI (SF-268 CNS): > 22.5 µM | GI50 (HS 578T breast): > 22.5 µM | TGI (HS 578T breast): > 22.5 µM | GI50 (NCI-H226 lung): > 22.5 µM | TGI (NCI-H226 lung): > 22.5 µM | GI50 (MDA-MB-435): > 22.5 µM | TGI (MDA-MB-435): > 22.5 µM | GI50 (HOP-92 NSCLC): > 22.5 µM | TGI (HOP-92 NSCLC): > 22.5 µM | GI50 (T-47D breast): > 22.5 µM | TGI (T-47D breast): > 22.5 µM | GI50 (NCI-H23 lung): > 22.5 µM | TGI (NCI-H23 lung): > 22.5 µM | GI50 (OVCAR-5 ovarian): > 22.5 µM | TGI (OVCAR-5 ovarian): > 22.5 µM | GI50 (BT-549 breast): > 22.5 µM | TGI (BT-549 breast): > 22.5 µM | GI50 (CCRF-CEM leukemia): > 22.5 µM | TGI (CCRF-CEM leukemia): > 22.5 µM | GI50 (SF-295 CNS): > 22.5 µM | TGI (SF-295 CNS): > 22.5 µM | GI50 (HCC-2998 colon): > 22.5 µM | TGI (HCC-2998 colon): > 22.5 µM | GI50 (EKVX NSCLC): > 22.5 µM | TGI (EKVX NSCLC): > 22.5 µM | GI50 (A549 NSCLC): > 22.5 µM | TGI (A549 NSCLC): > 22.5 µM | GI50 (OVCAR-8 ovarian): > 22.5 µM | TGI (OVCAR-8 ovarian): > 22.5 µM | GI50 (UACC-62 melanoma): > 22.5 µM | TGI (UACC-62 melanoma): > 22.5 µM | GI50 (U251 CNS): > 22.5 µM | TGI (U251 CNS): > 22.5 µM | GI50 (786-0 renal): > 22.5 µM | TGI (786-0 renal): > 22.5 µM | GI50 (LOX IMVI melanoma): > 22.5 µM | TGI (LOX IMVI melanoma): > 22.5 µM | GI50 (RPMI-8226 leukemia): > 22.5 µM | TGI (RPMI-8226 leukemia): > 22.5 µM | GI50 (A498 renal): > 22.5 µM | TGI (A498 renal): > 22.5 µM | GI50 (SK-MEL-28 melanoma): > 22.5 µM | TGI (SK-MEL-28 melanoma): > 22.5 µM | GI50 (COLO 205 colon): > 22.5 µM | TGI (COLO 205 colon): > 22.5 µM | GI50 (SK-MEL-5 melanoma): > 22.5 µM | TGI (SK-MEL-5 melanoma): > 22.5 µM | GI50 (HT29 colon): > 22.5 µM | TGI (HT29 colon): > 22.5 µM | GI50 (SK-MEL-2 melanoma): > 22.5 µM | TGI (SK-MEL-2 melanoma): > 22.5 µM | GI50 (MALME-3M melanoma): > 22.5 µM | TGI (MALME-3M melanoma): > 22.5 µM | GI50 (SK-OV-3 ovarian): > 22.5 µM | TGI (SK-OV-3 ovarian): > 22.5 µM | GI50 (HOP-62 NSCLC): > 22.5 µM | TGI (HOP-62 NSCLC): > 22.5 µM | GI50 (MDA-MB-468 breast): > 22.5 µM | TGI (MDA-MB-468 breast): > 22.5 µM | GI50 (MCF7 breast): > 22.5 µM | TGI (MCF7 breast): > 22.5 µM | GI50 (UO-31 renal): > 22.5 µM | TGI (UO-31 renal): > 22.5 µM | GI50 (HCT-116 colon): > 22.5 µM | TGI (HCT-116 colon): > 22.5 µM | GI50 (HCT-15 colon): > 22.5 µM | TGI (HCT-15 colon): > 22.5 µM | GI50 (SNB-75 CNS): > 22.5 µM | TGI (SNB-75 CNS): > 22.5 µM | GI50 (SR leukemia): > 22.5 µM | TGI (SR leukemia): > 22.5 µM | GI50 (CAKI-1 renal): > 22.5 µM | TGI (CAKI-1 renal): > 22.5 µM | GI50 (IGROV1 ovarian): > 22.5 µM | TGI (IGROV1 ovarian): > 22.5 µM | GI50 (SNB-19 CNS): > 22.5 µM | TGI (SNB-19 CNS): > 22.5 µM | GI50 (TK-10 renal): > 22.5 µM | TGI (TK-10 renal): > 22.5 µM | GI50 (K-562 leukemia): > 22.5 µM | TGI (K-562 leukemia): > 22.5 µM | GI50 (SN12C renal): > 22.5 µM | TGI (SN12C renal): > 22.5 µM | GI50 (NCI-H522 lung): > 22.5 µM | TGI (NCI-H522 lung): > 22.5 µM | GI50 (UACC-257 melanoma): > 22.5 µM | TGI (UACC-257 melanoma): > 22.5 µM | GI50 (MDA-MB-231 breast): > 22.5 µM | TGI (MDA-MB-231 breast): > 22.5 µM | GI50 (NCI/ADR-RES ovarian): > 22.5 µM | TGI (NCI/ADR-RES ovarian): > 22.5 µM | GI50 (OVCAR-3 ovarian): > 22.5 µM | TGI (OVCAR-3 ovarian): > 22.5 µM | GI50 (OVCAR-4 ovarian): > 22.5 µM | TGI (OVCAR-4 ovarian): > 22.5 µM | GI50 (M14 melanoma): > 22.5 µM | TGI (M14 melanoma): > 22.5 µM | GI50 (NCI-H460 lung): > 22.5 µM | TGI (NCI-H460 lung): > 22.5 µM
